# Measured values: US9856210B2, “Pharmaceutical composition for prevention and treatment of amyotrophic lateral sclerosis” (Kyoto University, priority 2010, dated 2018)
# What was measured:
# SOD1 = assay: Western blotting of intracellular SOD1 in iPS cell-derived astrocytes; format: cell-based, human; settings: astrocytes from ALS patient iPS cells; 1 μM, 3 μM, 10 μM and 30 μM; 48 hours; β-actin internal standard (FIG. 3D)
# Description: A 4-mm skin biopsy was cultured for 3 weeks, and the resulting cells in culture were used as the fibroblasts derived from an ALS patient.
# Human cDNAs for KLF4, Sox2, Oct3/4 and c-Myc were transferred to the above-described fibroblasts using a retrovirus, as described by Takahashi K et al. in Cell 131(5), 861, 2007. On day 6 after the gene transfer, the fibroblasts were transferred onto SNL feeder cells. The following day, the medium was replaced with a primate ES cell culture broth supplemented with 4 ng/ml of bFGF (Wako). The medium was exchanged every two days; 30 days after the gene transfer, colonies were picked up.
# Neurospheres were formed by a slightly modified version of the method described by Wada T et al. in PLoS ONE 4(8), e6722, 2009. […]
# The iPS cell-derived astrocytes were seeded to a 6-well plate at a density of 250,000 cells/well. […] After the incubation, the amount expressed was detected by ECL (Enhanced ChemiLuminescence) using an HRP-linked anti-rabbit IgG antibody (1:5000; GE healthcare) and an HRP-linked anti-mouse IgG antibody (1:5000; GE healthcare).
# human SOD1 (hSOD1) mRNA = assay: Human SOD1 mRNA in spinal cord of human SOD1 (G93A) transgenic mice (PCR); format: in vivo, mouse; settings: 60 mg/kg/day oral, 5 days a week for 4 weeks, vs solvent control; relative to β-actin (FIG. 4)
# Description: (§1) To 8-week-old human SOD1 (G93A) transgenic mice (The Jackson Laboratory) were orally administered sorafenib (60 mg/kg/day) dissolved in 95% ethanol and Cremophol EL or solvent alone as a control, each to 3 mice, 5 days a week for 4 weeks. After administration, the spinal cord was removed. Total RNA was extracted and human and mouse SOD1 mRNA amounts were measured by PCR.
# mouse SOD1 (mSOD1) mRNA = assay: Mouse SOD1 mRNA in spinal cord of human SOD1 (G93A) transgenic mice (PCR); format: in vivo; settings: 60 mg/kg/day oral, 5 days a week for 4 weeks, vs solvent control; relative to β-actin (FIG. 4)
# Description: as §1
smiles,measurement,setting,value
CNC(=O)c1cc(Oc2ccc(NC(=O)Nc3ccc(Cl)c(C(F)(F)F)c3)cc2)ccn1 [sorafenib],expression of SOD1 (western blotting),SOD1,a reduction in the expression of SOD1 was observed
same,human SOD1 mRNA amount in spinal cord,human SOD1 (hSOD1) mRNA,significantly decreased
same,mouse SOD1 mRNA amount in spinal cord,mouse SOD1 (mSOD1) mRNA,significantly decreased
